Test system: subjects with heart failure
Test: Human hemodynamics (impedance cardiography), subjects with stable heart failure, 7.5-hour ascending dose IV infusion
Format: in vivo
Conditions: for Heart Rate CFB / Heart Rate Percent CFB: placebo-subtracted; for Cardiac Index CFB / Cardiac Index Percent CFB / Cardiac Output CFB / Cardiac Output Percent CFB / Diastolic Blood Pressure CFB / Diastolic Blood Pressure Percent CFB / Stroke Volume CFB / Stroke Volume Percent CFB / Systolic Blood Pressure CFB / Systolic Blood Pressure Percent CFB: post hoc analysis
Procedure: Efficacy was based on the pharmacodynamic evaluation of hemodynamics, which was monitored using the noninvasive technique of impedance cardiography. Heart rate values were collected by impedance cardiography measurements. It was noted that the heart rate of subjects receiving placebo were elevated on the day of their infusions, at baseline before the infusion, and for the first 3 to 4 hours after the infusions were started (FIG. 17). Based on this observation, it appeared that there was a potential effect of period on the observed heart rate.
A post hoc graphical analysis of the hemodynamic data was done to adjust for the elevated baseline values seen just before onset of the infusion, to obtain the best estimate of each hemodynamic parameter, and to correct for the effect of period. A post hoc graphic presentation was prepared from the complete (high frequency) dataset. This dataset contains the raw data that were further processed by the vendor (ie, CardioDynamics) and reported only at specific time points.
In this post hoc analysis an extended baseline was used for each value that included all values recorded before initiation of the infusion. Then an average value for each parameter was obtained from the last 30 minutes of each 2.5 hour infusion and was used as the effect in that period of the infused dose. Each value was modified for the effect of period of infusion by subtracting the mean change from baseline seen in placebo subjects dosed in that same period (placebo subtraction). The dose effect was estimated by averaging the values from all subjects who received the same dose after the placebo subtraction.
As may have occurred in healthy subjects, subjects with stable heart failure may have experienced anxiety before the start of the infusion that contributed to this increase in baseline heart rate values.

## H-TKFTLSLDVPTNIMNLLFNIAKAKNLRAQAAANAHLMAQI-NH2 [SEQ ID NO: 1, TKFTLSLDVPTNIMNLLFNIAKAKNLRAQAAANAHLMAQI-NH2]
Highest dose of 54 ng/kg/min
  increase in heart rate: ~10 bpm
Infusion rate 0.3 ng/kg/min
  Heart Rate CFB: 1.5 bpm
  Heart Rate Percent CFB: 3.0%
  Cardiac Index CFB: 0.3 L/min/m^2
  Cardiac Index Percent CFB: 13.9%
  Cardiac Output CFB: 0.7 L/min
  Cardiac Output Percent CFB: 14.2%
  Diastolic Blood Pressure CFB: −8.6 mm Hg
  Diastolic Blood Pressure Percent CFB: −12.6%
  Stroke Volume CFB: 7.6 mL
  Stroke Volume Percent CFB: 9.5%
  Systolic Blood Pressure CFB: −18.2 mm Hg
  Systolic Blood Pressure Percent CFB: −15.8%
Infusion rate 1 ng/kg/min
  Heart Rate CFB: −0.4 bpm
  Heart Rate Percent CFB: 0.2%
  Cardiac Index CFB: 0.2 L/min/m^2
  Cardiac Index Percent CFB: 10.1%
  Cardiac Output CFB: 0.5 L/min
  Cardiac Output Percent CFB: 10.2%
  Diastolic Blood Pressure CFB: −6.1 mm Hg
  Diastolic Blood Pressure Percent CFB: −9.1%
  Stroke Volume CFB: 6.6 mL
  Stroke Volume Percent CFB: 9.1%
  Systolic Blood Pressure CFB: −4.9 mm Hg
  Systolic Blood Pressure Percent CFB: −4.7%
Infusion rate 3 ng/kg/min
  Heart Rate CFB: −1.3 bpm
  Heart Rate Percent CFB: −0.9%
  Cardiac Index CFB: 0.1 L/min/m^2
  Cardiac Index Percent CFB: 6.9%
  Cardiac Output CFB: 0.3 L/min
  Cardiac Output Percent CFB: 7.0%
  Diastolic Blood Pressure CFB: −8.6 mm Hg
  Diastolic Blood Pressure Percent CFB: −13.0%
  Stroke Volume CFB: 4.8 mL
  Stroke Volume Percent CFB: 7.3%
  Systolic Blood Pressure CFB: −9.5 mm Hg
  Systolic Blood Pressure Percent CFB: −9.2%
Infusion rate 9 ng/kg/min
  Heart Rate CFB: 0.2 bpm
  Heart Rate Percent CFB: 1.5%
  Cardiac Index CFB: 0.2 L/min/m^2
  Cardiac Index Percent CFB: 9.1%
  Cardiac Output CFB: 0.5 L/min
  Cardiac Output Percent CFB: 9.2%
  Diastolic Blood Pressure CFB: −8.6 mm Hg
  Diastolic Blood Pressure Percent CFB: −11.9%
  Stroke Volume CFB: 5.9 mL
  Stroke Volume Percent CFB: 7.6%
  Systolic Blood Pressure CFB: −10.6 mm Hg
  Systolic Blood Pressure Percent CFB: −9.4%
Infusion rate 18 ng/kg/min
  Heart Rate CFB: 0.8 bpm
  Heart Rate Percent CFB: 2.5%
  Cardiac Index CFB: 0.4 L/min/m^2
  Cardiac Index Percent CFB: 14.5%
  Cardiac Output CFB: 0.8 L/min
  Cardiac Output Percent CFB: 15.5%
  Diastolic Blood Pressure CFB: −7.6 mm Hg
  Diastolic Blood Pressure Percent CFB: −11.4%
  Stroke Volume CFB: 9.3 mL
  Stroke Volume Percent CFB: 12.9%
  Systolic Blood Pressure CFB: −8.8 mm Hg
  Systolic Blood Pressure Percent CFB: −8.7%
Infusion rate 36 ng/kg/min
  Heart Rate CFB: 3.6 bpm
  Heart Rate Percent CFB: 6.3%
  Cardiac Index CFB: 0.3 L/min/m^2
  Cardiac Index Percent CFB: 12.4%
  Cardiac Output CFB: 0.7 L/min
  Cardiac Output Percent CFB: 12.4%
  Diastolic Blood Pressure CFB: −12.5 mm Hg
  Diastolic Blood Pressure Percent CFB: −18.5%
  Stroke Volume CFB: 4.2 mL
  Stroke Volume Percent CFB: 6.0%
  Systolic Blood Pressure CFB: −16.4 mm Hg
  Systolic Blood Pressure Percent CFB: −14.9%
Infusion rate 45 ng/kg/min
  Heart Rate CFB: 3.8 bpm
  Heart Rate Percent CFB: 7.5%
  Cardiac Index CFB: 0.3 L/min/m^2
  Cardiac Index Percent CFB: 12.6%
  Cardiac Output CFB: 0.7 L/min
  Cardiac Output Percent CFB: 13.3%
  Diastolic Blood Pressure CFB: −12.6 mm Hg
  Diastolic Blood Pressure Percent CFB: −19.0%
  Stroke Volume CFB: 3.3 mL
  Stroke Volume Percent CFB: 5.4%
  Systolic Blood Pressure CFB: −12.0 mm Hg
  Systolic Blood Pressure Percent CFB: −11.7%
Infusion rate 54 ng/kg/min
  Heart Rate CFB: 7.0 bpm
  Heart Rate Percent CFB: 11.5%
  Cardiac Index CFB: 0.2 L/min/m^2
  Cardiac Index Percent CFB: 7.5%
  Cardiac Output CFB: 0.4 L/min
  Cardiac Output Percent CFB: 11.5%
  Diastolic Blood Pressure CFB: −14.4 mm Hg
  Diastolic Blood Pressure Percent CFB: −23.9%
  Stroke Volume CFB: -2.5 mL
  Stroke Volume Percent CFB: 0.5%
  Systolic Blood Pressure CFB: −18.8 mm Hg
  Systolic Blood Pressure Percent CFB: −21.4%

— US20110105397A1, “METHOD FOR TREATING HEART FAILURE WITH STRESSCOPIN-LIKE PEPTIDES” (priority 2009, published 2011)
